15 molecules from PubChem BioAssay (NCI) can be followed below.

Common to all, as to experiment: inhibition of tumour cell growth, NCI panel, 48 h
Assay [1] relates to RPMI-8226 leukemia.
Assay [2] concerns A549 NSCLC.
Assay [3] has as its system MALME-3M melanoma.
In assay [4] the test system is MDA-N.
Assay [5] deals with NCI-H226 lung.
For assay [6], the system named is MOLT-4 leukemia.
Assay [7] relates to U251 CNS.
Assay [8] concerns HOP-92 NSCLC.

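In this assay, cells in 96-well plates receive the compound at five concentrations for 48 hours. Endpoints are linearly interpolated between the surrounding concentrations. TGI is the concentration that stops growth completely.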 A value given as a limit tells only on which side of the number the result lay.

Consider `O=C1C=CC(=O)c2c1ccc1c3ccccc3n(-c3ccccc3[N+](=O)[O-])c21`, for which the TGI was above 24.1 µM in assay [1]; above 64.8 µM in assay [2]; 5.63 µM in assay [3]; above 21.6 µM in assay [4]; 50.3 µM in assay [5]; above 100 µM in assay [6]. Moreover, in assay [7], the TGI amounted to 21.2 µM.

`O=C(c1ccc(Cl)cc1)N(C(=S)OCc1ccccn1)c1ccccc1`: the TGI in assay [1], in assay [3], in assay [4], in assay [5], in assay [6] and in assay [7] was above 100 µM throughout.

In the case of `COc1ccc(C(=O)/C=C/c2ccc(OCCSCCCCCCCCCCSCCOc3ccc(/C=C/C(=O)c4ccc(OC)c(OC)c4)cc3)cc2)cc1OC`, the TGI in assay [1], in assay [2], in assay [3], in assay [4] and in assay [6] was above 100 µM throughout.

Consider `C/C(=N\Nc1nc2cccnc2s1)c1ccccn1`, for which the TGI was above 100 µM in assay [1]; above 34.8 µM in assay [2]; 42 µM in assay [3]; above 100 µM in assay [4]; above 100 µM in assay [7].

Turning to `COc1cc2c(cc1OCCCCOc1cc3c(cc1OC)C(=O)N1CCC[C@H]1C(=O)N3)N=C[C@@H]1CCCN1C2=O`, the TGI in assay [1] amounted to 3.66 µM; in assay [2], 44.9 µM; in assay [3], 22.5 µM; in assay [4], 19.6 µM; in assay [5], 26.7 µM; in assay [6] it was 4.69 µM. The molecule also gave a TGI in assay [7] of 14 µM.

Take `CCOC1Oc2ccccc2-c2nc(SC)ncc21` (stereo unspecified): the TGI in assay [8], in assay [1], in assay [2], in assay [4], in assay [5] and in assay [6] was above 100 µM in each case. Also, the TGI in assay [7] is above 100 µM.

In the case of `O=C(OCc1ccccc1)N(CCCCN(CCCNCc1ccccc1)C(=O)OCc1ccccc1)CCCNCc1ccccc1`, the TGI in assay [8] was 2.82 µM; in assay [1], 0.605 µM; in assay [3], 3.29 µM; in assay [4], 0.983 µM; in assay [5] it was 2.07 µM.

In the case of `CC(OC(=O)C(CC(=O)OC(C)(C)C)NC(=O)OC(C)(C)C)C(=O)OCc1ccccc1` (stereo unspecified), the TGI in assay [1], in assay [2], in assay [3], in assay [4], in assay [5] and in assay [6] was above 100 µM each time. The same molecule came in with a TGI in assay [7] above 100 µM.

For `CC1C(OC2O[C@@H]3O[C@@]4(C)CC[C@H]5[C@H](C)CC[C@@H](C2C)[C@@]35O4)O[C@@H]2O[C@@]3(C)CC[C@H]4[C@H](C)CC[C@@H]1[C@@]24O3` (stereo partly specified), the TGI in assay [1], in assay [2], in assay [3], in assay [4], in assay [5] and in assay [6] was above 50 µM each time. In assay [7], this molecule returned a TGI above 50 µM.

Consider `COc1ccc(C2CC3(c4ccccc4)ON=C(c4ccccc4)N3c3ccccc3S2)cc1` (stereo unspecified), for which the TGI in assay [1], in assay [2], in assay [3], in assay [4], in assay [5] and in assay [7] was above 100 µM throughout.

As for `O=c1[nH]c(=O)n(C2OC(CO)C(O)C2O)cc1Oc1ccccc1` (stereo unspecified), the TGI in assay [8], in assay [2], in assay [3], in assay [4], in assay [5] and in assay [6] was above 100 µM in each case. This molecule gave a TGI in assay [7] above 100 µM.

In the case of `O=c1cn[nH]c(=S)n1/N=C/c1c[nH]c2ccccc12`, the TGI in assay [1], in assay [2], in assay [3], in assay [4], in assay [6] and in assay [7] was above 100 µM each time.

Take `CN1CN(c2ccccc2)C2(CCN(CCC3COc4ccccc4O3)CC2)C1=O` (stereo unspecified): the TGI was 42.7 µM in assay [1]; above 100 µM in assay [2]; 38.5 µM in assay [3]; 53.1 µM in assay [4]; 85.1 µM in assay [5]; 70.1 µM in assay [6]. This molecule also had a TGI in assay [7] of 66.5 µM.

Turning to `Cc1nnc(N)nc1/C=C/c1c(O)ccc2ccccc12`, the TGI in assay [8] was 86.9 µM; in assay [1], above 100 µM; in assay [2] it was above 100 µM; in assay [4], above 100 µM; in assay [5] it was 44.5 µM; in assay [6] it was above 100 µM. Moreover, the TGI in assay [7] was above 100 µM.

As to `O=C(CNC(c1ccccc1)(c1ccccc1)c1ccccc1)NC1CCCCC1NC(=O)CNC(c1ccccc1)(c1ccccc1)c1ccccc1` (stereo unspecified), the TGI in assay [8] was 78.7 µM; in assay [1], above 100 µM; in assay [2], above 100 µM; in assay [3] it was above 100 µM; in assay [4] it was above 100 µM; in assay [6], above 100 µM. This molecule returned a TGI in assay [7] above 100 µM.
